Test results as given in US9695155B2, “Herbicidal substituted pyrimidinyloxy benzene compounds” (E. I. DU PONT DE NEMOURS AND COMPANY, priority 2013, dated 2017).
Read-outs that look alike come from different tables or passages of the source.

What was measured:
ragweed = experiment: Test C preemergence; assay type: in vivo, Ambrosia elatior
Excerpt: (§1) Seeds of plant species selected from blackgrass (Alopecurus myosuroides), Italian ryegrass (Lolium multiflorum), wheat, winter (winter wheat, Triticum aestivum), galium (catchweed bedstraw, Galium aparine), corn (Zea mays), large (Lg) crabgrass (Digitaria sanguinalis), giant foxtail (Setaria faberii), johnsongrass (Sorghum halepense), lambsquarters (Chenopodium album), morningglory (Ipomoea coccinea), yellow nutsedge (Cyperus esculentus), pigweed (Amaranthus retroflexus), ragweed (common ragweed, Ambrosia elatior), soybean (Glycine max), barnyardgrass (Echinochloa crus-galli), oilseed rape (Brassica napus), waterhemp (common waterhemp, Amaranthus rudis), kochia (Kochia scoparia), wild oat (Avena fatua), surinam grass (Brachiaria decumbens), foxtail, green (green foxtail, Setaria viridis), goosegrass (Eleusine indica), bromegrass, downy (downy bromegrass, Bromus tectorum), nightshade (eastern black nightshade, Solanum ptycanthum), cocklebur (common cocklebur, Xanthium strumarium), cupgrass, woolly (woolly cupgrass, Eriochloa villosa), bermudagrass (Cynodon dactylon), sunflower, (common oilseed sunflower, Helianthus annuus), Russian thistle (Salsola kali), and velvetleaf (Abutilon theophrasti) were planted into a blend of loam soil and sand and treated preemergence with test chemicals formulated in a non-phytotoxic solvent mixture which included a surfactant.
(§2) At the same time, plants selected from these crop and weed species and also barley, winter (winter barley, Hordeum vulgare), windgrass (Apera spica-venti), chickweed (common chickweed, Stellaria media), deadnettle (henbit deadnettle, Lamium amplexicaule), and canarygrass (littleseed canarygrass, Phalaris minor) were planted in pots containing Redi-Earth® planting medium (Scotts Company, 14111 Scottslawn Road, Marysville, Ohio 43041) comprising spaghnum peat moss, vermiculite, wetting agent and starter nutrients and treated with postemergence applications of test chemicals formulated in the same manner. Plants ranged in height from 2 to 18 cm (1- to 4-leaf stage) for postemergence treatments. Treated plants and controls were maintained in a greenhouse for 13 to 15 days, after which time all species were compared to controls and visually evaluated. Plant response ratings, summarized in Table C, are based on a scale of 0 to 100 where 0 is no effect and 100 is complete control. A dash (-) response means no test result.

wheat, winter = experiment: Test C preemergence; assay type: in vivo, Triticum aestivum
Excerpt: as §1, §2

[1] = 16 g ai/ha, preemergence, scale 0 to 100 (0 no effect, 100 complete control)
[2] = 62 g ai/ha, preemergence, scale 0 (no effect) to 100 (complete control)
[3] = 125 g ai/ha, preemergence, scale 0 (no effect) to 100 (complete control)
[4] = Preemergence, 31 g ai/ha, scale 0 to 100, 0 no effect, 100 complete control
[5] = Ambrosia artemisiifolia, pre-emergence, 16 g ai/ha, preemergence, scale 0 to 100 (0 no effect, 100 complete control), read-out: Ragweed plant response rating
[6] = Ambrosia artemisiifolia, pre-emergence, 62 g ai/ha, preemergence, scale 0 (no effect) to 100 (complete control), read-out: Ragweed plant response rating
[7] = Ambrosia artemisiifolia, pre-emergence, 125 g ai/ha, preemergence, scale 0 (no effect) to 100 (complete control), read-out: Ragweed plant response rating
[8] = Triticum aestivum, pre-emergence, 16 g ai/ha, preemergence, scale 0 to 100 (0 no effect, 100 complete control), read-out: Wheat plant response rating
[9] = Triticum aestivum, pre-emergence, 62 g ai/ha, preemergence, scale 0 (no effect) to 100 (complete control), read-out: Wheat plant response rating
[10] = Triticum aestivum, pre-emergence, 125 g ai/ha, preemergence, scale 0 (no effect) to 100 (complete control), read-out: Wheat plant response rating
[11] = 8 g ai/ha, preemergence, scale 0 to 100 (0 no effect, 100 complete control)
[12] = Preemergence, 62 g ai/ha, scale 0 to 100, 0 no effect, 100 complete control

SMILES | Ragweed plant response rating (ragweed; [1]) | Ragweed plant response rating (ragweed; [2]) | Ragweed plant response rating (ragweed; [3]) | Plant response rating, Ragweed (ragweed; [4]) | Wheat plant response rating (wheat, winter; [1]) | Wheat plant response rating (wheat, winter; [2]) | Wheat plant response rating (wheat, winter; [3]) | Plant response rating, Wheat (wheat, winter; [4]) | pest or weed control at 16 g/ha (ragweed; [5]) | pest or weed control at 125 g/ha (ragweed; [7]) | plant injury at 16 g/ha (wheat, winter; [8]) | plant injury at 125 g/ha (wheat, winter; [10]) | further results
CC(C)c1cnn(-c2c(C#N)cccc2Oc2ncc(Cl)cn2)c1 [Compound 85] | 0 | 50 | 65 | 0 | 0 | 0 | 5 | 0 |  |  |  |  | 
Fc1cnc(Oc2cccc(C(F)F)c2-n2cc(Cl)cn2)nc1 [Compound 94] | 0 | 10 | 25 | 0 | 0 | 0 | 5 | 0 |  |  |  |  | 
N#Cc1cccc(Oc2ncc(Cl)cn2)c1-n1cc(OC(F)F)cn1 [Compound 97] | 35 | 85 | 100 | 35 | 0 | 60 | 90 | 10 |  |  |  |  | 
N#Cc1cccc(Oc2ncc(Cl)cn2)c1-n1cc(SC(F)(F)F)cn1 [Compound 134, 3-[(5-chloro-2-pyrimidinyl)oxy]-2-[4-(trifluoromethylthio)-1-pyrazolyl]benzonitrile] |  |  |  |  |  |  |  |  | 0% | 50% | 0% | 15% | pest or weed control at 62 g/ha (ragweed; [6]): 55%; pest or weed control at 31 g/ha (ragweed; Ambrosia artemisiifolia, pre-emergence, Preemergence, 31 g ai/ha, scale 0 to 100, 0 no effect, 100 complete control, read-out: Plant response rating, Ragweed): 25%; plant injury at 62 g/ha (wheat, winter; [9]): 0%; plant injury at 31 g/ha (wheat, winter; Triticum aestivum, pre-emergence, Preemergence, 31 g ai/ha, scale 0 to 100, 0 no effect, 100 complete control, read-out: Plant response rating, Wheat): 0%
N#Cc1cnn(-c2c(C#N)cccc2Oc2ncc(Br)cn2)c1 [Compound 135] | 40 | 65 |  | 55 | 0 | 0 |  | 0 |  |  |  |  | Ragweed plant response rating (ragweed; [11]): 0; Wheat plant response rating (wheat, winter; [11]): 0
Fc1cccc(Oc2ncc(Cl)cn2)c1-n1cc(C(F)F)nn1 [Compound 141, 5-chloro-2-[2-[4-(difluoromethyl)-1H-1,2,3-triazol-1-yl]-3-fluorophenoxy]pyrimidine] |  |  |  |  |  |  |  |  | 85% | 100% | 0% | 60% | pest or weed control at 62 g/ha (ragweed; [6]): 100%; plant injury at 62 g/ha (wheat, winter; [9]): 40%
FC(F)c1cn(-c2ccccc2Oc2ncc(Cl)cn2)nn1 [Compound 147, 5-chloro-2-[2-[4-(difluoromethyl)-1H-1,2,3-triazol-1-yl]phenoxy]pyrimidine] |  |  |  |  |  |  |  |  | 75% | 100% | 0% | 25% | pest or weed control at 62 g/ha (ragweed; [6]): 98%; plant injury at 62 g/ha (wheat, winter; [9]): 0%
N#Cc1cnn(-c2c(Oc3ncc(F)cn3)cccc2C(F)F)c1 [Compound 240] | 10 |  | 80 |  | 0 |  | 5 |  |  |  |  |  | Plant response rating, Ragweed (ragweed; [12]): 100; Plant response rating, Wheat (wheat, winter; [12]): 0
N#Cc1cccc(Oc2ncc(Cl)cn2)c1-n1cc(C(F)F)cn1 [Compound 253, 3-(5-chloropyrimidin-2-yl)oxy-2-[4-(difluoromethyl)-1H-pyrazol-1-yl]benzonitrile] |  |  |  |  |  |  |  |  | 35% | 100% | 0% | 60% | pest or weed control at 62 g/ha (ragweed; Ambrosia artemisiifolia, pre-emergence, Preemergence, 62 g ai/ha, scale 0 to 100, 0 no effect, 100 complete control, read-out: Plant response rating, Ragweed): 85%; plant injury at 62 g/ha (wheat, winter; Triticum aestivum, pre-emergence, Preemergence, 62 g ai/ha, scale 0 to 100, 0 no effect, 100 complete control, read-out: Plant response rating, Wheat): 0%
FC(F)Oc1cnn(-c2c(Cl)cccc2Oc2ncc(Cl)cn2)c1 [Compound 258] | 0 |  | 90 |  | 0 |  | 25 |  |  |  |  |  | Plant response rating, Ragweed (ragweed; [12]): 80; Plant response rating, Wheat (wheat, winter; [12]): 5
N#Cc1cn(-c2c(C#N)cccc2Oc2ncc(Cl)cn2)nn1 [Compound 273] | 10 |  | 85 |  | 0 |  | 5 |  |  |  |  |  | Plant response rating, Ragweed (ragweed; [12]): 55; Plant response rating, Wheat (wheat, winter; [12]): 0
